Assay results from patent publication US10238688B2, “Combination therapies for bladder cancer” (GENEDIA BIOTECH CO. LTD., priority 2015, dated 2019).

What was measured:
Assay type in all cases: cell-based, human
[1] = tested on: UM-UC-3; experiment: MTT cell survival / IC50, UM-UC-3 cells; conditions: for Cell survival (%) / Single drug 4X Cell Survival (%): UM-UC-3; for Cell survival (%): Table S3, ng/ml: Pi 40, Pa 160, EH 250, Ci 1500, Mi 200, 1=Ci/Mi, 2=EH/Ci/Mi, 3=Pa/Ci/Mi, 4=Pi/Ci/Mi; for Single drug 4X Cell Survival (%): ng/ml: EH 1000, Ci 6000, Mi 800, Pi 160, Pa 640, Ge 20, EH/Ci/Mi regimen; for ACS (%): UM-UC-3 cells, Table 4 (B); for Cell survival 72 hours: Um-Uc-3 cells, Table 4 (A)
Experimental: (§1) The clinical grade of the chemotherapeutics (NCI Dictionary of Cancer Terms) was provided by the First Affiliated Hospital of Harbin Medical University: Pirarubicin (Pi, Wanle, Shenzhen), Paclitaxel (Pa, Taiji, Sichuan), Adriamycin (Ad, Pfizer, Jiangsu), Epirubicin Hydrochloride (EH, Haizheng, Zhejiang), Hydroxycamptothecin (Hy, Lishizhen, Hubei), Cisplatin (Ci, Haosen, Jiangsu), Gemcitabine (Ge, Haosen, Jiangsu) and Mitomycin (Mi, Haizheng, Zhejiang). The drug induced cell death was determined by a thiazolyl […] (MTT, 490 nm reading) based cell proliferation assay in the cultured cells following treatment by various concentrations of drugs for 72 hours. The relative chemoresistance to each drug of all cell lines was calculated with the lowest IC50 as a reference. The overall chemoresistance of each cell line was described as “chemoresistance index”, the numerator of the total relative IC50 to all the drugs over the number of drugs to rank the overall resistance state of each cell line to the six chemotherapeutics collectively.
(§2) The relative IC50 (fold) of each drug of all nine cell lines was normalized to the lowest IC50 in the most sensitive cell line (FIG. 2G), to describe the single drug resistance of cell lines. The overall chemoresistance of each cell line, a “chemoresistance index” (the numerator of the total relative IC50 over the number of drugs) (FIG. 2G) were calculated to rank the overall resistance state of each cell line to this six chemotherapeutics.
(§3) Twenty six-drug combinations at the indicated doses were initially generated through a random number generator (using MATLAB MathWorks©, Natick, Mass., U.S.) (The upper half of Table 1). The cell survival (% over the not drug control) of treated cells was determined and then used for a calculation of the average cumulative cell survival (%, ACS: the sum of cell survival (%) per combination divided by the number of cell lines tested). ACS<30% was used to separate the effective from the not-effective combinations.

[2] = tested on: Myc/Max pathway; experiment: Cignal Finder dual-luciferase pathway reporter, Myc/Max; conditions: for Relative activity, Myc/Max reporter: luc/Renluc relative to negative control reporter, single drug at 4 folds vs EH/Ci/Mi combination
Experimental: (§4) The pathway analysis was performed with Qiagen's Cignal Finder Pathway Reporter Array systems according to the manufacturer's instructions. The pathway-focused dual-luciferase reporter construct was a mixture of an inducible transcription factor responsive firefly luciferase reporter and constitutively expressing renilla construct. Transcriptional response element (TRE) sequence response elements to each specific transcriptional factor triggered by the different signaling pathways are positioned before the TATA box of firefly luciferase reporter gene. The extent of activity of the reporter reflects the level of activity of the particular signaling pathway. CMV controlled renilla expression vector is co-transfected into the cell as an internal control. Non-inducible reporter construct that lacks the transcriptional factor binding sequence and could not be induced by any transcription factors is used as a negative control. Cells transfected with CMV directed firefly luciferase reporter gene serve as a positive control. Briefly, cells seeded in 6-well plates were transfected with Cignal finder pathway arrays according to the manufacturer's instructions (Qiagen). Then cells were seeded onto 96-well plates. […] After 6 h of incubation with the different drugs at 37° C., cells were lysed and a dual luciferase assay (for firefly and renilla luciferase) was performed using a PromegaGloMax 20/20 illuminometer. The firefly luciferase activities were normalized over the renilla luciferase activities after background activity determined by luciferase activities of negative controls was subtracted. A triple test of cell survival under these drug doses was also performed by MTT assay following 18 h incubation at 37° C. […]

[3] = tested on: EJ; experiment: MTT cell survival / IC50, EJ cells; conditions: for Cell survival (%): Table S3, ng/ml: Pi 40, Pa 160, EH 250, Ci 1500, Mi 200, 1=Ci/Mi, 2=EH/Ci/Mi, 3=Pa/Ci/Mi, 4=Pi/Ci/Mi; for Single drug 4X Cell Survival (%): ng/ml: EH 1000, Ci 6000, Mi 800, Pi 160, Pa 640, Ge 20, EH/Ci/Mi regimen
Experimental: as §1, §2, §3

[4] = tested on: H-bc; experiment: MTT cell survival / IC50, H-bc cells; conditions: for Cell survival 72 hours / ACS (%): H-bc cells; for Cell survival 72 hours: Table 4 (A); for ACS (%): Table 4 (B); for Cell survival (%) / Single drug 4X Cell Survival (%): H-bc; for Cell survival (%): Table S3, ng/ml: Pi 40, Pa 160, EH 250, Ci 1500, Mi 200, 1=Ci/Mi, 2=EH/Ci/Mi, 3=Pa/Ci/Mi, 4=Pi/Ci/Mi; for Single drug 4X Cell Survival (%): ng/ml: EH 1000, Ci 6000, Mi 800, Pi 160, Pa 640, Ge 20, EH/Ci/Mi regimen
Experimental: as §1, §2, §3

[5] = tested on: Heat Shock pathway; experiment: Cignal Finder dual-luciferase pathway reporter, Heat Shock; parameters: key to Relative activity, Heat Shock reporter: firefly/renilla ratio, background (negative control) subtracted; conditions: for Relative activity, Heat Shock reporter: luc/Renluc relative to negative control reporter, single drug at 4 folds vs EH/Ci/Mi combination
Experimental: as §4

Structure (SMILES) | Cell survival (%) [1] | Single drug 4X Cell Survival (%) [1] | ACS (%) [1] | Cell survival 72 hours [1] | relative drug trigged pathway activity over the no-drug level, Myc/Max ([2]; 5637 cells) | Relative activity, Myc/Max reporter ([2]; 5637 cells) | relative drug trigged pathway activity over the no-drug level, Myc/Max ([2]; Biu87 cells) | Relative activity, Myc/Max reporter ([2]; Biu87 cells) | digitalized pathway activity, Myc/Max ([2]; H-bc cells) | relative drug trigged pathway activity over the no-drug level, Myc/Max ([2]; H-bc cells) | Relative activity, Myc/Max reporter ([2]; H-bc cells) | digitalized pathway activity, Myc/Max ([2]; SV-HUC-1 cells) | relative drug trigged pathway activity over the no-drug level, Myc/Max ([2]; SV-HUC-1 cells) | Relative activity, Myc/Max reporter ([2]; SV-HUC-1 cells) | Relative activity, Myc/Max reporter ([2]; UM-UC-3 cells) | relative drug trigged pathway activity over the no-drug level, Myc/Max ([2]; Um-Uc-3 cells) | Cell survival (%) [3] | Single drug 4X Cell Survival (%) [3] | Cell survival 72 hours [4] | ACS (%) [4] | other results
N.N.[Cl][Pt][Cl] [Ci, (SP-4-2)-diamminedichloroplatinum(II)] | 14.71% | 9.33% | 9.33% | 9.33% | 1.05 fold | 11.64 | 0.56 fold | 4.60 | 0 (null (0) if neither of the above holds) | 1.03 fold | 50.23 | 0 (null (0) if neither of the above holds) | 1 fold | 109.70 | 24.42 | 0.42 fold | 32.34% | 22.36% | 1.61% | 1.61% | digitalized pathway activity, Myc/Max ([2]; 5637 cells): 0 (null (0) if neither of the above holds); digitalized pathway activity, Myc/Max ([2]; Biu87 cells): 0 (null (0) if neither of the above holds); Cell survival (%) [4]: 41.98%; Single drug 4X Cell Survival (%) [4]: 1.61%; digitalized pathway activity, Heat Shock ([5]; 5637 cells): 0 (null (0) if neither of the above holds); relative drug trigged pathway activity over the no-drug level, Heat Shock ([5]; 5637 cells): 0.65 fold; Relative activity, Heat Shock reporter ([5]; 5637 cells): 9.18; relative drug trigged pathway activity over the no-drug level, Heat Shock ([5]; Biu87 cells): 1.52 fold; Relative activity, Heat Shock reporter ([5]; Biu87 cells): 2.87; digitalized pathway activity, Heat Shock ([5]; H-bc cells): 0 (null (0) if neither of the above holds); relative drug trigged pathway activity over the no-drug level, Heat Shock ([5]; H-bc cells): 1.19 fold; Relative activity, Heat Shock reporter ([5]; H-bc cells): 16.31; digitalized pathway activity, Heat Shock ([5]; SV-HUC-1 cells): 0 (null (0) if neither of the above holds); relative drug trigged pathway activity over the no-drug level, Heat Shock ([5]; SV-HUC-1 cells): 0.93 fold; Relative activity, Heat Shock reporter ([5]; SV-HUC-1 cells): 36.80; digitalized pathway activity, Heat Shock ([5]; UM-UC-3 cells): 0 (null (0) if neither of the above holds); Relative activity, Heat Shock reporter ([5]; UM-UC-3 cells): 3.42; relative drug trigged pathway activity over the no-drug level, Heat Shock ([5]; Um-Uc-3 cells): 0.79 fold
COc1cccc2c1C(=O)c1c(O)c3c(c(O)c1C2=O)C[C@@](O)(C(=O)CO)C[C@@H]3[C@@H]1C[C@H](N)[C@@H](O)[C@H](C)O1 [EH, (8R,10S)-10-((2S,4S,5R,6S)-4-amino-5-hydroxy-6-methyltetrahydro-2H-pyran-2-yl)-6,8,11-trihydroxy-8-(2-hydroxyacetyl)-1-methoxy-7,8,9,10-tetrahydrotetracene-5,12-dione] | 43.54% | 25.19% | 25.19% | 25.19% | 1.5 fold | 16.61 | 1.66 fold | 13.61 | 0 (null (0) if neither of the above holds) | 1.37 fold | 17.62 | 0 (null (0) if neither of the above holds) | 1.13 fold | 125.00 | 25.48 | 0.44 fold | 56.55% | 38.46% | 2.60% | 2.60% | Cell survival (%) [4]: 61.03%; Single drug 4X Cell Survival (%) [4]: 2.6%; digitalized pathway activity, Heat Shock ([5]; 5637 cells): 0 (null (0) if neither of the above holds); relative drug trigged pathway activity over the no-drug level, Heat Shock ([5]; 5637 cells): 1.04 fold; Relative activity, Heat Shock reporter ([5]; 5637 cells): 14.60; digitalized pathway activity, Heat Shock ([5]; Biu87 cells): 0 (null (0) if neither of the above holds); relative drug trigged pathway activity over the no-drug level, Heat Shock ([5]; Biu87 cells): 1.06 fold; Relative activity, Heat Shock reporter ([5]; Biu87 cells): 2.01; digitalized pathway activity, Heat Shock ([5]; H-bc cells): 0 (null (0) if neither of the above holds); relative drug trigged pathway activity over the no-drug level, Heat Shock ([5]; H-bc cells): 0.86 fold; Relative activity, Heat Shock reporter ([5]; H-bc cells): 3.13; digitalized pathway activity, Heat Shock ([5]; SV-HUC-1 cells): 0 (null (0) if neither of the above holds); relative drug trigged pathway activity over the no-drug level, Heat Shock ([5]; SV-HUC-1 cells): 0.91 fold; Relative activity, Heat Shock reporter ([5]; SV-HUC-1 cells): 36.00; digitalized pathway activity, Heat Shock ([5]; UM-UC-3 cells): 0 (null (0) if neither of the above holds); Relative activity, Heat Shock reporter ([5]; UM-UC-3 cells): 2.93; relative drug trigged pathway activity over the no-drug level, Heat Shock ([5]; Um-Uc-3 cells): 0.67 fold
